Reference: US8889902B2, “Acetylsalicylic acid salts” (priority 2009, dated 2014)

Tests used:
Wistar rats [1] = conditions: rats p.o., cited from earlier work
[2] = background statement; cited from earlier work
platelet aggregation = assay: Platelet aggregation ex vivo after 3 days treatment; format: in vivo, rats
Experimental: Platelet aggregation was studied using whole blood impedance aggregometry on Multiplate (Multiple Platelet Function Analyzer, Dynabyte Medical, Germany) (Toth O et al, Thromb Haemost 2006; 96:781-788. […] Blood samples for in vitro experiment were collected from healthy donor B. […] In the ex vivo experiment blood was collected into plastic tubes covered with hirudin (Dynabyte Medical, Germany) from narcotized rats that were treated for 3 previous days with test substances p.o. The measurements were performed according to modified Dynabyte Medical protocol. […] After 5 min incubation and stirring at 37° C., measurements were initiated by adding of the appropriate agonist solution (sourced from Dynabyte Medical, Germany): After the thrombosis experiment the narcotized animals who received test substances for 3 days were used for platelet aggregation test ex vivo. […] Blood samples were used for measurement between 30 min and 4 h after collection. The measurements were performed according to modified Dynabyte Medical protocol (see above under Platelet aggregation).

ICR mice = assay: Acute toxicity of MASA to mice p.o.; format: in vivo; conditions: P = 0.05
Experimental: (§1) The acute toxicity of MASA was determined on Wistar rats and ICR mice by p.o. introduction.
(§2) Male IRC mice with body mass of 20-22 g and Wistar rats with body mass of 200-230 g were used. For determining the acute toxicity each dose was given to 6 animals, each next dose was increased by 500 mg/kg. LD50 was calculated after Karber by the method of Akhila J S et al, Current Sci 2007; 93:917-920 with modification for determining the dose confidence interval (Turner R In Screening Methods in Pharmacology, Acad. Press, New York, 1965, 61-63).
(§3) LD50 was calculated as follows: LD50=Least dose lethal to all in a group−Σ(a×b)/N N—number of animals in each group a—the dose difference b—the mean mortality (lethality in 2 neighbouring groups/2)
(§4) MASA was dissolved ex tempore in 0.2% agar-agar and introduced per os through catheter into stomach. […] Animals were observed till the Day 10 after introduction.

Wistar rats [3] = assay: Acute toxicity of MASA to rats p.o.; format: in vivo; conditions: P = 0.05
Experimental: as §1, §2, §3, §4

[4] = test system: serum lipid levels (C, HDL, LDL, TG); assay: Chronic hyperlipidemia model (Triton WR1339, 3 weeks); format: in vivo, Wistar rats; conditions: TR 250 mg/kg 3x/week
Experimental: Male Wistar rats were used. Animals were held in climatized rooms 22±1° C. with relative humidity 60±5%, and 12/12-hour light/dark cycle with free access to water and feed. Initial weight of animals was 220-240 g. Experimental chronical (subchronical) hyperlipidemia/hypercholesterolemia was induced by TR using the method described by Levine and Saltzman (Levine S, Saltzman A, J Pharmacol Toxicol Meth 2007; 55:224-226). Animals received 250 mg/kg of TR solution via tail vein three times a week for 3 weeks. Solutions of test substances or water for Control and TR group was introduced p.o. once a day one hour before injection of TR solution or taking a blood sample according to the following scheme:
Blood for biochemical analyses was obtained after 1, 2 and 3 weeks (on the next day after the TR injection) by cardiac punction under ether narcosis. Serum was separated by centrifugation and analyzed for total C, HDL, LDL and TG levels by commercial kits. Statistics.

[5] = AA induced, 5 mg/kg/d p.o. 3 days
[6] = ADP induced, 5 mg/kg/d p.o. 3 days
[7] = PGE1 + ADP induced, 5 mg/kg/d p.o. 3 days
[8] = AA induced, 10 mg/kg/d p.o. 3 days
[9] = ADP induced, 10 mg/kg/d p.o. 3 days
[10] = PGE1 + ADP induced, 10 mg/kg/d p.o. 3 days

## CC(=O)Oc1ccccc1C(=O)O [ASA, acetylsalicylic acid]
Wistar rats [1]; given by Bayer AG
  LD50: > 1100 mg/kg
Wistar rats [1]; given by Boehringer Ingelheim, Acros Chemicals, Sigma-Aldrich
  Acute toxicity (LD50): 200 mg/kg
[2]
  solubility in water: about 0.3%
Platelet aggregation; [5]
  AUC: 550 ± 31.3^2 AU*min
  Amax: 86.1 ± 6.8^2 AU
Platelet aggregation; [6]
  AUC: 768 ± 53.2 AU*min
  Amax: 150.3 ± 13.5 AU
Platelet aggregation; [7]
  AUC: 794 ± 48.6 AU*min
  Amax: 147.2 ± 11.8 AU

## CC(=O)Oc1ccccc1C(=O)[O-].C[N+](C)(C)NCCC(=O)O [MASA, 3-(trimethylammonioamino)propanoate Acetylsalicylic Acid Addition Salt]
ICR mice
  confidence interval for LD50: Factor f at P = 0.05 for this experiment is 1.32, therefore the confidence interval for LD50 is 1642-2860 (mg/kg).
Wistar rats [3]
  confidence interval for LD50: Factor f at P = 0.05 for this experiment is 1.308, therefore the confidence interval for LD50 is 1720 ÷ 2944 (mg/kg).
[4]; MASA 150 mg/kg/d p.o.
  HDL after 1 week (HDL1): 100.1 ± 9.4 mg/dL
  HDL after 2 weeks (HDL2): 113.8 ± 13.1 mg/dL
  HDL after 3 weeks (HDL3): 128.3 ± 18.5 mg/dL
  LDL after 1 week (LDL1): 263.3 ± 19.4 mg/dL
  LDL after 2 weeks (LDL2): 287.6 ± 18.5 mg/dL
  LDL after 3 weeks (LDL3): 261.9 ± 12.6 mg/dL
  TG after 1 week (TG1): 964 ± 94.9 mg/dL
  TG after 2 weeks (TG2): 1079 ± 84 mg/dL
  TG after 3 weeks (TG3): 982 ± 72.7 mg/dL
  Total C after 1 week (C1): 375.9 ± 25.8 mg/dL
  Total C after 2 weeks (C2): 406.7 ± 19.8 mg/dL
  Total C after 3 weeks (C3): 409 ± 39.4 mg/dL
Platelet aggregation; [8]
  AUC: 232 ± 44.1^2&a AU*min
  Amax: 48.2 ± 9.7^3&a AU
Platelet aggregation; [9]
  AUC: 528 ± 46.5^1 AU*min
  Amax: 75.5 ± 12.8^2 AU
Platelet aggregation; [10]
  AUC: 195 ± 35.3^3 AU*min
  Amax: 41.4 ± 14.8^2 AU

## O=C(O)c1cccnc1 [NA, nicotinic acid]
[4]; NA 50 mg/kg/d p.o.
  HDL after 1 week (HDL1): 111.3 ± 9.1 mg/dL
  HDL after 2 weeks (HDL2): 144.7 ± 13.5 mg/dL
  HDL after 3 weeks (HDL3): 127.3 ± 10.9 mg/dL
  LDL after 1 week (LDL1): 216.3 ± 14.0 mg/dL
  LDL after 2 weeks (LDL2): 250.3 ± 20.6 mg/dL
  LDL after 3 weeks (LDL3): 265.1 ± 18.4 mg/dL
  TG after 1 week (TG1): 734 ± 81.6 mg/dL
  TG after 2 weeks (TG2): 860 ± 73.8 mg/dL
  TG after 3 weeks (TG3): 828 ± 44.7 mg/dL
  Total C after 1 week (C1): 345 ± 15.7 mg/dL
  Total C after 2 weeks (C2): 401.1 ± 25.1 mg/dL
  Total C after 3 weeks (C3): 405.5 ± 25.9 mg/dL
